Results: patent US20110039763A1, “TARGETED ANTIMICROBIAL MOIETIES” (C3 JIAN, INC., priority 2009, published 2011)
Entries after “also recorded” stand apart in the source; their conditions may differ.

System: microorganisms
Assay: Targeting peptide binding to target microorganisms (Tables 3, 10, 12)
Conditions: microorganism(s) the targeting peptide binds; binding in aqueous buffers varied with peptide solubility, preferably 1x PBS

Substance | Target(s)
PF-262 (DPHSEIDVTRYCQLHHFTCQTMQISEREFHYLIETQ; Peptide with targeting and/or antimicrobial activity) | S. mutans; also recorded: S. epidermidis; also recorded: M. luteus; also recorded: E. coli; also recorded: P. aeruginosa; also recorded: A. baumannii
PF-263 (NLKKCPC; Peptide with targeting and/or antimicrobial activity) | S. epidermidis; also recorded: M. luteus; also recorded: A. baumannii
PF-265 (MKTLFFPLFLIIFVLIIQALDQSYQKKIGISKPQKHPEFMQ; Peptide with targeting and/or antimicrobial activity) | S. epidermidis; also recorded: M. luteus; also recorded: A. baumannii
PF-266 (DQEKKNKTEESTEQ; Peptide with targeting and/or antimicrobial activity) | S. mutans
PF-267 (SDDKRTD; Peptide with targeting and/or antimicrobial activity) | M. luteus
PF-268 (EVLLSDLRPDIFSET; Peptide with targeting and/or antimicrobial activity) | S. mutans
PF-275 (LVSGVANTVKNTAHTVGNTAKHAGHVAADTTVKATKKQQVK; Peptide with targeting and/or antimicrobial activity) | S. mutans
PF-279 (SHIGFISISACLAVLLGIARLFVWTWVKFFA; Peptide with targeting and/or antimicrobial activity) | S. mutans; also recorded: S. epidermidis; also recorded: M. luteus; also recorded: E. coli; also recorded: P. aeruginosa; also recorded: A. baumannii
PF-281 (SYNTYYNKLIHGQRTPDGM; Peptide with targeting and/or antimicrobial activity) | S. mutans; also recorded: E. coli
PF-282 (QNNDTSAWCGSAHKNGNS; Peptide with targeting and/or antimicrobial activity) | S. mutans
PF-284 (MRYITYSLIPRLLSKKVIHQQ; Peptide with targeting and/or antimicrobial activity) | C. difficile
PF-285 (VPAKLLRVIDEIPE; Peptide with targeting and/or antimicrobial activity) | S. mutans
PF-288 (IYQLLNIEYSEDD; Peptide with targeting and/or antimicrobial activity) | S. mutans; also recorded: E. coli
PF-291 (DVDGAIESEL; Peptide with targeting and/or antimicrobial activity) | S. mutans; also recorded: E. coli
PF-295 (NIQVYESECGNYIFKKSDESFLIDIFDKNGTH; Peptide with targeting and/or antimicrobial activity) | C. difficile
PF-299 (LATKLKYEKEHKKM; Peptide with targeting and/or antimicrobial activity) | B. subtilis
PF-300 (VKDVLLELFNKIIGA; Peptide with targeting and/or antimicrobial activity) | B. subtilis; also recorded: C. difficile
PF-304 (LVKDTSDIKNDLNNIEIVTSKNSNDIAKLKSVK; Peptide with targeting and/or antimicrobial activity) | S. mutans
PF-308 (QQYLILDRM; Peptide with targeting and/or antimicrobial activity) | C. difficile
PF-309 (GIPGMTAAPAEENEQEENADEE; Peptide with targeting and/or antimicrobial activity) | S. mutans; also recorded: E. coli
PF-311 (IDAVTKKKTTCMIRAPTKIPIAHTDN; Peptide with targeting and/or antimicrobial activity) | C. difficile
PF-314 (ECLKKAIKSKALNKAFKIDVPDEVYDNLLMELEEYEK; Peptide with targeting and/or antimicrobial activity) | S. mutans
PF-317 (LILVSDI; Peptide with targeting and/or antimicrobial activity) | S. mutans
PF-320 (DSGYYALLENKEERVVWDGEVVANNIFNNLWIVVNKVKTG; Peptide with targeting and/or antimicrobial activity) | S. mutans; also recorded: E. coli
PF-323 (ARESIEKSHVPVDATIVGVVDSFEVFDE; Peptide with targeting and/or antimicrobial activity) | S. mutans
PF-324 (HFSLL; Peptide with targeting and/or antimicrobial activity) | C. difficile
PF-325 (LTIDEKLRNHR; Peptide with targeting and/or antimicrobial activity) | S. mutans; also recorded: E. coli
PF-326 (VIVGNLGAQKEKRNDTPISAKKDIMGDKTVRVRADLHH; Peptide with targeting and/or antimicrobial activity) | S. mutans; also recorded: E. coli

Substance | Target(s)
PF-328 (NGNEKAFSEVENLVK; Peptide with targeting and/or antimicrobial activity) | S. mutans
PF-329 (IGILFDKSVRKY; Peptide with targeting and/or antimicrobial activity) | S. epidermidis
PF-333 (YMTKKLVEMAEQQMAGKSNR; Peptide with targeting and/or antimicrobial activity) | S. mutans
PF-334 (QQYLILDRM; Peptide with targeting and/or antimicrobial activity) | S. epidermidis; also recorded: C. difficile
PF-337 (YMTKKLVEMAERQMAGK; Peptide with targeting and/or antimicrobial activity) | S. epidermidis
PF-338 (KGTSCPDQLSKAIRQSI; Peptide with targeting and/or antimicrobial activity) | S. mutans
PF-340 (VKDVLLELFNKIIGA; Peptide with targeting and/or antimicrobial activity) | S. mutans; also recorded: E. coli
PF-348 (ESASAAEWYNPNMNVKKAICMG; Peptide with targeting and/or antimicrobial activity) | B. subtilis; also recorded: E. coli; also recorded: P. aeruginosa; also recorded: C. albicans; also recorded: E. faecalis; also recorded: C. jejuni
PF-351 (YLFFKGKKVAEEEATKDEVKR; Peptide with targeting and/or antimicrobial activity) | S. mutans
PF-352 (RVKKIG; Peptide with targeting and/or antimicrobial activity) | C. jeikeium
PF-359 (MTVMEDPGSEQRNKIQSPMKGEDFSALFGR; Peptide with targeting and/or antimicrobial activity) | S. epidermidis and B. fragilis and P. aeruginosa and C. albicans and MRSA and E. faecalis and C. jeikeium
PF-361 (NQVTEGIRLLVE; Peptide with targeting and/or antimicrobial activity) | S. epidermidis; also recorded: E. coli; also recorded: E. faecalis; also recorded: C. jejuni
PF-364 (LVNGIKI; Peptide with targeting and/or antimicrobial activity) | S. epidermidis; also recorded: B. fragilis; also recorded: P. aeruginosa; also recorded: C. jeikeium; also recorded: C. jejuni
PF-365 (LYKQKIQLEEELEKLKDDRQ; Peptide with targeting and/or antimicrobial activity) | S. epidermidis; also recorded: B. subtilis; also recorded: B. fragilis; also recorded: P. aeruginosa; also recorded: C. albicans
PF-367 (TKTPGTFTPGTGIQKTAVPL; Peptide with targeting and/or antimicrobial activity) | B. subtilis
PF-368 (MLKQTA; Peptide with targeting and/or antimicrobial activity) | C. jeikeium; also recorded: C. jejuni
PF-371 (TFIYNEF; Peptide with targeting and/or antimicrobial activity) | S. epidermidis; also recorded: B. fragilis; also recorded: C. jejuni
PF-372 (KKQDKRIEDKYKRMKKGD; Peptide with targeting and/or antimicrobial activity) | C. jeikeium; also recorded: C. jejuni
PF-384 (HISKERFEAY; Peptide with targeting and/or antimicrobial activity) | E. faecalis; also recorded: C. jeikeium; also recorded: C. jejuni
PF-388 (ITPLLDEIGKVCIDKISK; Peptide with targeting and/or antimicrobial activity) | E. faecalis; also recorded: C. jeikeium; also recorded: C. jejuni
PF-400 (VIAWKFRNKFENSGV; Peptide with targeting and/or antimicrobial activity) | S. epidermidis; also recorded: E. coli; also recorded: S. pneumoniae; also recorded: E. faecalis; also recorded: C. jeikeium
PF-402 (FIDVLKSKINEFLN; Peptide with targeting and/or antimicrobial activity) | S. epidermidis; also recorded: P. aeruginosa; also recorded: E. faecalis; also recorded: C. jejuni
PF-409 (DLVQSILSEFKKSG; Peptide with targeting and/or antimicrobial activity) | S. epidermidis and MRSA and C. jeikeium and C. jejuni
PF-412 (TSGWLGQLEQ; Peptide with targeting and/or antimicrobial activity) | M. luteus; also recorded: E. coli; also recorded: C. albicans; also recorded: C. jeikeium; also recorded: C. jejuni
PF-435 (MSRWDGHSDKGEAPAGKPPMHGFGLNGENK; Peptide with targeting and/or antimicrobial activity) | C. jeikeium
PF-436 (KKHVLVGKQEKNG; Peptide with targeting and/or antimicrobial activity) | C. jeikeium
PF-438 (QPYFQNQFKKITGYTPLQYRKEKR; Peptide with targeting and/or antimicrobial activity) | S. epidermidis; also recorded: E. coli; also recorded: S. pneumoniae; also recorded: C. jeikeium; also recorded: C. jejuni
